Measurements taken from paper doi:10.1101/2025.05.12.653380v2 (biorxiv, 2026).

Biological target: T1, HPC (helicase-primase complex) of HHV1, UL5-UL52-UL8 (Human alphaherpesvirus 1 strain 17, UniProt P10189+P10236)
T1 sequence (P10189 1-882): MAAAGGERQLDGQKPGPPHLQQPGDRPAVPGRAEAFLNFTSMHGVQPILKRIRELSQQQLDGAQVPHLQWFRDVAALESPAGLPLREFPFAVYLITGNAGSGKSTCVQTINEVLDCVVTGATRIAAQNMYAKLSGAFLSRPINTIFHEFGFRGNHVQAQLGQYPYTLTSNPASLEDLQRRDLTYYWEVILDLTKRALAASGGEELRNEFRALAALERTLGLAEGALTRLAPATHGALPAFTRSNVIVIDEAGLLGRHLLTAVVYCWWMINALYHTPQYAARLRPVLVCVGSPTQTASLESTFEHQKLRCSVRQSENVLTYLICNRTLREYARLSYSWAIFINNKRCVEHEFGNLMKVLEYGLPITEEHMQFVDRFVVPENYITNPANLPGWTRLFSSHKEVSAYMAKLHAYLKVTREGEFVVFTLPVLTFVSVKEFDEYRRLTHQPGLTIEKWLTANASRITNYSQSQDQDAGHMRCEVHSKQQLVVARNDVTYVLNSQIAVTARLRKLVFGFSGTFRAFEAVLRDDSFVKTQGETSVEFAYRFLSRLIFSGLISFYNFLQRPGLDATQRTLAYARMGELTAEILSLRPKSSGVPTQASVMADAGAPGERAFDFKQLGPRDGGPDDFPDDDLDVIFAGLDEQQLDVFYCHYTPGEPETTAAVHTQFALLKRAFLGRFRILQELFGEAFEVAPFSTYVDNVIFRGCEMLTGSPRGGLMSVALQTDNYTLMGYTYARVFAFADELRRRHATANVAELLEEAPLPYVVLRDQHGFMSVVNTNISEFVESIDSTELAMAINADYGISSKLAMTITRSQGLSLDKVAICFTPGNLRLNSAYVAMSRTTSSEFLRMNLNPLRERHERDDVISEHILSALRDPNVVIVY
T1 sequence (P10236 1-1058): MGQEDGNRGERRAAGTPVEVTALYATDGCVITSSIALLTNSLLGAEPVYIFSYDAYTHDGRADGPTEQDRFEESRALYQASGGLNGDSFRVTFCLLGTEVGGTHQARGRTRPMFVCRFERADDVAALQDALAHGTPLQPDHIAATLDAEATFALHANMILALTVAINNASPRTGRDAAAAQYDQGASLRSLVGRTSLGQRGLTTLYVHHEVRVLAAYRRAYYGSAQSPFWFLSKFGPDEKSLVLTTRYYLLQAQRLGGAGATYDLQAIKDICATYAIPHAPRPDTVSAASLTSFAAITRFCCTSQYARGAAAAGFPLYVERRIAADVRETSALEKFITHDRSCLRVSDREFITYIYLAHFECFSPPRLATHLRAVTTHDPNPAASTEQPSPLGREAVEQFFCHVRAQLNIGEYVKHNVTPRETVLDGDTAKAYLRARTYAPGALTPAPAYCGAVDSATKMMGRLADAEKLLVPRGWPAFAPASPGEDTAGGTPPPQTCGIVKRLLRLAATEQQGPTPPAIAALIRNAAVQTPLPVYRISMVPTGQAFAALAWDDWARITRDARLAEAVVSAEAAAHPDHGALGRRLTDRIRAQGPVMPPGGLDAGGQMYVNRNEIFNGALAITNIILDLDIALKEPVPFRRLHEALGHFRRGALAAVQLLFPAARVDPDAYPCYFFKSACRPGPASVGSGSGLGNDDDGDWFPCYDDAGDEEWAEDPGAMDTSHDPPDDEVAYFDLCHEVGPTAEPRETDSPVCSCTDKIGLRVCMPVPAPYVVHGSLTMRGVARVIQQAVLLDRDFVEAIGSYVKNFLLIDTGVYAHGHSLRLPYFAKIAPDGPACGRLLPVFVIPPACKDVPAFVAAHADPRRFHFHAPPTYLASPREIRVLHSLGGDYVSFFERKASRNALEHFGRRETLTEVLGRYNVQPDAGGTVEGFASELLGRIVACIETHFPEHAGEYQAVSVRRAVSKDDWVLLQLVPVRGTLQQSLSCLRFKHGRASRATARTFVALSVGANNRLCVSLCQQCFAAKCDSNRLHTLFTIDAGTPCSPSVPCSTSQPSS
T1 sequence (P10192 1-750 partner): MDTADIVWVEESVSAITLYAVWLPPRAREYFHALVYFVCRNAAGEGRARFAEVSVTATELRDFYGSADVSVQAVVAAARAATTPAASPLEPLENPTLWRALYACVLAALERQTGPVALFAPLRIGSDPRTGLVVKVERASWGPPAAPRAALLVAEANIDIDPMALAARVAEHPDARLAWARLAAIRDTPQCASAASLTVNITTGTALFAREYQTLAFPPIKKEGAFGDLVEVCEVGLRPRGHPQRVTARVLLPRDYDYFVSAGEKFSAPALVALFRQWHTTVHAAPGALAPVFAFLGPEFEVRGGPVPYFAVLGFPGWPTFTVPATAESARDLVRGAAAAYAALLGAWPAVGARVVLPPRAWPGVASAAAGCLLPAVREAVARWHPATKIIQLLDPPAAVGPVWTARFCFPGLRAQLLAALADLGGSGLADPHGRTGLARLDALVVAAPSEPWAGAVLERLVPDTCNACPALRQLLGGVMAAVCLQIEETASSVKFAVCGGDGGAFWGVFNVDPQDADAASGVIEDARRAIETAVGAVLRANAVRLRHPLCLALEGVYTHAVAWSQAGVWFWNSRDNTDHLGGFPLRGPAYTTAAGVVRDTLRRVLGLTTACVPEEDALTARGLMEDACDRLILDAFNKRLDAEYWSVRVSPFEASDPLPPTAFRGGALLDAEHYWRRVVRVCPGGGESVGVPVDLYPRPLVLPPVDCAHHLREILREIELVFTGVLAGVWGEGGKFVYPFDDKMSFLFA
Assay: NADH-coupled ATPase assay, Morrison fit of Kiapp, mixed inhibition model
Type: biochemical

Row | Structure (SMILES) | Ki [nM]
1 | Cc1cccc(C)c1N(CC(=O)Nc1ccc(-c2ncon2)cc1)C(=O)C1CCS(=O)(=O)CC1 [amenamevir] | 1.84 ± 0.16
2 | Cc1nc(N(C)C(=O)Cc2ccc(-c3ccccn3)cc2)sc1S(N)(=O)=O [pritelivir] | 1.99 ± 0.18
